Our source for the fold induction values is patent US10308608B2, “Histone deacetylase inhibitors” (BIOMARIN PHARMACEUTICAL INC., priority 2015, dated 2019).

Structures can show the parent of a compound that is named as a salt.

In one assay the test system is Frataxin (FXN) mRNA. As to the kind of experiment: Effect of HDAC inhibitors on frataxin (FXN) mRNA expression, qRT-PCR in compound-treated iPSC derived neuronal cells. Format: cell-based. The following applies: iPSC, 24 h, compound concentration of 0.625 μM, 24 h incubation, read-out: FXN mRNA fold induction. The procedure: Effect of HDAC Inhibitors on Frataxin (FXN) mRNA Expression
Method: mRNA quantification of compound-treated iPSC derived neuronal cells Neuronal stem cells were cultured in Neurobasal A medium (Life technologies #10888022) supplemented with N2, B27 (Life technologies #17502-048 and #17504-044), L-glutamine (Life technologies #25030081), supplemented with 20 ng/ml EGF (R&D Systems #236-EG) and 20 ng/ml bFGF (BioPioneer # HRP-0011). Neuronal differentiation was initiated by removing growth factors and culturing cells in Neurobasal A with N2 and B27. Cells were allowed to differentiate for 16 days. HDAC inhibitory compound was then added and incubate for 24 h. RNA isolation was performed using the RNeasy Plus mini kit (QIAgen #74134) using a QIAcube instrument per manufacturer's instructions. qRT-PCR was performed using qScript One-Step SYBR Green qRT-PCR Kit (Quanta Biosciences 170-8893BR) with the following conditions: 20 minutes at 50° C., 5 minutes at 95° C., and then 40 cycles of 20 seconds at 95° C., 20 seconds at 55° C., 30 seconds at 72° C. The primer sequences to detect expression of FXN were: 5′-[…]-3′ and 5′-[…]-3′.
The data for the following compounds, for FXN mRNA fold induction at a compound concentration of 0.625 μM are shown in Table 1, where A<1, 1<B<2, 2<C<3, 3<D<5, E>5.
For the compound `CC(C)CN1CC(Oc2ccc(C(=O)Nc3ccccc3N)cc2)C1` [Compound 43, N-(2-aminophenyl)-4-((1-isobutylazetidin-3-yl)oxy)benzamide dihydrochloride], the fold induction at 0.625 µM fell in the range of 1 to 2.
For `CN1CCCC(Oc2ccc(C(=O)Nc3ccccc3N)cc2)CC1` (stereo not shown) [Compound 34, N-(2-aminophenyl)-4-((1-methylazepan-4-yl)oxy)benzamide bis(2,2,2-trifluoroacetate)], the fold induction at 0.625 µM lay within 1 to 2.
The same measure, in the same setting: in the case of `CC(C)(O)CN1CC(Oc2ccc(C(=O)Nc3ccccc3N)cc2)C1` [Compound 44, N-(2-aminophenyl)-4-((1-(2-hydroxy-2-methylpropyl)azetidin-3-yl)oxy)benzamide dihydrochloride] it was 1 to 2; in that of `Nc1ccccc1NC(=O)c1ccc(O[C@@H]2CCN(C3COC3)C2)cc1` [Compound 130, (R)-N-(2-aminophenyl)-4-((1-(oxetan-3-yl)pyrrolidin-3-yl)oxy)benzamide], 1 to 2; in that of `CC1(CN2CC(Oc3ccc(C(=O)Nc4ccccc4N)cc3)C2)CC1` [Compound 47, N-(2-aminophenyl)-4-((1-((1-methylcyclopropyl)methyl)azetidin-3-yl)oxy)benzamide dihydrochloride], 1 to 2.
On to `Nc1ccccc1NC(=O)c1ccc(N[C@@H]2CCN(C3CC3)C2)cc1` [Compound 138, (R)-N-(2-aminophenyl)-4-((1-cyclopropylpyrrolidin-3-yl)amino)benzamide trihydrochloride], for which the fold induction at 0.625 µM fell in the range of 2 to 3.
Same read-out and setting: the result for `Nc1ccccc1NC(=O)c1ccc(OC2CCN(C3COC3)CC2)cc1` [Compound 132, N-(2-aminophenyl)-4-((1-(oxetan-3-yl)piperidin-4-yl)oxy)benzamide] reads 1 to 2; that for `Nc1ccccc1NC(=O)c1ccc(N[C@H]2CCNC2)cc1` [Compound 94, (S)-N-(2-aminophenyl)-4-(pyrrolidin-3-ylamino)benzamide trihydrochloride], 1 to 2; that for `Nc1ccccc1NC(=O)c1ccc(O[C@@H]2CCN(CC3CCCCC3)C2)cc1` [Compound 64, (R)-N-(2-aminophenyl)-4-((1-(cyclohexylmethyl)pyrrolidin-3-yl)oxy)benzamide dihydrochloride], 2 to 3.
The same measure, in the same setting: in the case of `Nc1ccccc1NC(=O)c1ccc(OC2CN(CC3CCCCC3)C2)cc1` [Compound 48, N-(2-aminophenyl)-4-((1-(cyclohexylmethyl)azetidin-3-yl)oxy)benzamide dihydrochloride] it was 2 to 3; in that of `Nc1ccccc1NC(=O)c1ccc(N[C@@H]2CCN(CC3CC3)C2)cc1` [Compound 107, (R)-N-(2-aminophenyl)-4-((1-(cyclopropylmethyl)pyrrolidin-3-yl)amino)benzamide trihydrochloride], 2 to 3.
As for `Nc1ccccc1NC(=O)c1ccc(OC2CCCN(C3COC3)CC2)cc1` (stereo not shown) [Compound 124, N-(2-aminophenyl)-4-((1-(oxetan-3-yl)azepan-4-yl)oxy)benzamide], the fold induction at 0.625 µM was 1 to 2.
Same read-out and setting: the result for `CC(C)(O)CN1CC[C@@H](Nc2ccc(C(=O)Nc3ccccc3N)cc2)C1` [Compound 105, (R)-N-(2-aminophenyl)-4-((1-(2-hydroxy-2-methylpropyl)pyrrolidin-3-yl)amino)benzamide trihydrochloride] reads 2 to 3; that for `CC(=O)N1CC(Nc2ccc(C(=O)Nc3ccccc3N)cc2)C1` [Compound 170, 4-((1-acetylazetidin-3-yl)amino)-N-(2-aminophenyl)benzamide], 1 to 2; that for `CC(C)CN1CC[C@@H](Oc2ccc(C(=O)Nc3ccccc3N)cc2)C1` [Compound 59, (R)-N-(2-aminophenyl)-4-((1-isobutylpyrrolidin-3-yl)oxy)benzamide dihydrochloride], 1 to 2.
Same read-out and setting: the result for `CC(C)(C)CN1CC[C@H](Nc2ccc(C(=O)Nc3ccccc3N)cc2)C1` [Compound 98, (S)-N-(2-aminophenyl)-4-((1-neopentylpyrrolidin-3-yl)amino)benzamide trihydrochloride] reads 2 to 3; that for `CC(C)(C)CN1CC(Nc2ccc(C(=O)Nc3ccccc3N)cc2)C1` [Compound 90, N-(2-aminophenyl)-4-((1-neopentylazetidin-3-yl)amino)benzamide], 2 to 3; that for `CC1(CN2CC[C@@H](Nc3ccc(C(=O)Nc4ccccc4N)cc3)C2)CC1` [Compound 108, (R)-N-(2-aminophenyl)-4-((1-((1-methylcyclopropyl)methyl)pyrrolidin-3-yl)amino)benzamide], 2 to 3.
As for `CC(C)CN1CCC(Oc2ccc(C(=O)Nc3ccccc3N)cc2)CC1` [Compound 67, N-(2-aminophenyl)-4-((1-isobutylpiperidin-4-yl)oxy)benzamide dihydrochloride], the fold induction at 0.625 µM fell in the range of 1 to 2.
On to `Nc1ccccc1NC(=O)c1ccc(NC2CN(C3CC3)C2)cc1` [Compound 134, N-(2-aminophenyl)-4-((1-cyclopropylazetidin-3-yl)amino)benzamide trihydrochloride], for which the fold induction at 0.625 µM is 1 to 2.
Still for that read-out and setting: the result for `CC(C)(O)CN1CC[C@@H](Oc2ccc(C(=O)Nc3ccccc3N)cc2)C1` [Compound 60, (R)-N-(2-aminophenyl)-4-((1-(2-hydroxy-2-methylpropyl)pyrrolidin-3-yl)oxy)benzamide dihydrochloride] reads 1 to 2.
Still for that read-out and setting: in the case of `Nc1ccccc1NC(=O)c1ccc(O[C@H]2CCN(CC3CCCCC3)C2)cc1` [Compound 56, (S)-N-(2-aminophenyl)-4-((1-(cyclohexylmethyl)pyrrolidin-3-yl)oxy)benzamide dihydrochloride] it was 2 to 3; in that of `CC(C)(O)CN1CCC(Nc2ccc(C(=O)Nc3ccccc3N)cc2)CC1(C)C` (stereo not shown) [Compound 369, N-(2-aminophenyl)-4-((1-(2-hydroxy-2-methylpropyl)-2,2-dimethylpiperidin-4-yl)amino)benzamide], 1 to 2.
The same measure, in the same setting: in the case of `Nc1ccccc1NC(=O)c1ccc(OC2CC3CCC(C2)N3)cc1` (stereo not shown) [Compound 70, 4-((8-azabicyclo[3.2.1]octan-3-yl)oxy)-N-(2-aminophenyl)benzamide hydrochloride] it was 1 to 2; in that of `CC(C)(O)CN1CCC(Oc2ccc(C(=O)Nc3ccccc3N)cc2)CC1(C)C` (stereo not shown) [Compound 363, N-(2-aminophenyl)-4-((1-(2-hydroxy-2-methylpropyl)-2,2-dimethylpiperidin-4-yl)oxy)benzamide], 2 to 3.

The assay is the same for the next values; noted with them: iPSC, 24 h, read-out: FXN mRNA fold induction, compound concentration of 0.625 μM, 24 h incubation.
`Nc1ccccc1NC(=O)c1ccc(NC2CC3CCC(C2)N3)cc1` (stereo not shown) [Compound 115, 4-((8-azabicyclo[3.2.1]octan-3-yl)amino)-N-(2-aminophenyl)benzamide]: the fold induction at 0.625 µM lay within 1 to 2.
The same measure, in the same setting: the result for `CN1C2CCC1CC(Nc1ccc(C(=O)Nc3ccccc3N)cc1)C2` (stereo not shown) [Compound 116, N-(2-aminophenyl)-4-((8-methyl-8-azabicyclo[3.2.1]octan-3-yl)amino)benzamide trihydrochloride] reads 2 to 3; that for `CC(C)(O)CN1CCC(N(CC2CC2)c2ccc(C(=O)Nc3ccccc3N)cc2)CC1` [Compound 29, N-(2-aminophenyl)-4-((cyclopropylmethyl)(1-(2-hydroxy-2-methylpropyl)piperidin-4-yl)amino)benzamide Trihydrochloride], 1 to 2.
`Nc1ccccc1NC(=O)c1ccc(OC2CC3CCC(C2)N3CC2CC2)cc1` (stereo not shown) [Compound 75, N-(2-aminophenyl)-4-((8-(cyclopropylmethyl)-8-azabicyclo[3.2.1]octan-3-yl)oxy)benzamide dihydrochloride]: the fold induction at 0.625 µM lay in the range of 1 to 2.
On the same count and under the same terms, in the case of `Nc1ccccc1NC(=O)c1ccc(NC2CC3CCC(C2)N3CC2CC2)cc1` (stereo not shown) [Compound 120, N-(2-aminophenyl)-4-((8-(cyclopropylmethyl)-8-azabicyclo[3.2.1]octan-3-yl)amino)benzamide trihydrochloride] it was 1 to 2; in that of `CC(C)(O)CN1C2CCC1CC(Oc1ccc(C(=O)Nc3ccccc3N)cc1)C2` (stereo not shown) [Compound 73, N-(2-aminophenyl)-4-((8-(2-hydroxy-2-methylpropyl)-8-azabicyclo[3.2.1]octan-3-yl)oxy)benzamide dihydrochloride], 1 to 2; in that of `CC(C)(C)CN1C2CCC1CC(Nc1ccc(C(=O)Nc3ccccc3N)cc1)C2` (stereo not shown) [Compound 119, N-(2-aminophenyl)-4-((8-neopentyl-8-azabicyclo[3.2.1]octan-3-yl)amino)benzamide], 2 to 3.
Still for that read-out and setting: in the case of `CC1(CN2C3CCC2CC(Oc2ccc(C(=O)Nc4ccccc4N)cc2)C3)CC1` (stereo not shown) [Compound 76, N-(2-aminophenyl)-4-((8-((1-methylcyclopropyl)methyl)-8-azabicyclo[3.2.1]octan-3-yl)oxy)benzamide dihydrochloride] it was 2 to 3; in that of `CN1C2CCC1CC(Oc1ccc(C(=O)Nc3ccccc3N)cc1)C2` (stereo not shown) [Compound 71, N-(2-aminophenyl)-4-((8-methyl-8-azabicyclo[3.2.1]octan-3-yl)oxy)benzamide dihydrochloride], 1 to 2.
